Measurements published in patent US20210009959A1, “METHODS FOR ENHANCING OSTEOGENIC DIFFERENTIATION USING VITAMIN D” (priority 2019, published 2021).

Key:
Type in all cases: cell-based
[1] = test system: human adipose stem cells (hASCs); experiment: Osteogenic gene expression of hASCs seeded on BCP20/80 scaffold; details: for RUNX2 gene expression, increase: 30 min incubation
Method: (§1) In one embodiment, a method of static culture of hASCs by pre-treatment with vitamin D3 (calcitriol) and attachment of hASCs to the scaffold used in one-step surgical procedure comprises the following steps. At one step, isolating hASCs as explained in FIG. 1. In an embodiment, the hASCs from three donors at passage 3 are used for further processing. As an optional step, the obtained hASCs are either or not incubated for a period of about 30 mins with low concentrated calcitriol of about 10 nM at room temperature.
(§2) At next step, the calcitriol treated hASCs are washed twice with Phosphate Buffered Saline (PBS) to remove calcitriol. Further, the washed hASCs are centrifuged and resuspended in Dulbecco's Minimum Essential Medium (DMEM) without any supplements. At another step, the resuspended cells are seeded on the scaffold and allowed to attach to the scaffolds for a period of about 30 minutes. At next step, the scaffolds with attached cells are transferred to 12-well plates with Costar® Transwell® containers (Corning Life Sciences, Lowell, Mass., USA) containing expansion medium (DMEM) supplemented with 10% Fetal Clone I (FCI), antibiotics (1% penicillin/streptomycin/fungizone (PSF)), 50 μM ascorbic acid (Merck, Darmstadt, Germany), and 10 mM β-glycerol phosphate (Merck, Darmstadt, Germany) (PLGA/β-TCP). At next step, the hASCs seeded scaffolds are incubated at 5% CO2 in a humidified incubator at predefined temperature of about 37° C. for a period of about 3 weeks.
Referring to FIGS. 8A to 8I, the effects of short and long calcitriol treatment on osteogenic gene expression of hASCs is disclosed, where hASCs are seeded in BCP scaffold. The stimulatory effect of 30 min calcitriol on osteogenic gene expression in hASCs seeded on BCP20/80 at day 21 is more noticeable than continuous calcitriol treatment. The 30 mins incubation with calcitriol increases the RUNX2 (early osteogenic marker) gene expression in hASCs by 3.6-fold after 2 weeks, and 5.7-fold after 3 weeks of culture compared to non-treated hASCs. FIGS. 8A to 8I exemplarily illustrate the effects of calcitriol treatment on osteogenic gene expression of hASCs.
The 30 minutes pre-treatment of hASCs with calcitriol increases VEGF189 gene expression, whereas in continuous calcitriol treatment, the VEGF189 gene expression reaches almost steady expression levels during the 3 weeks of culture. The VEGF189 gene expression in 30 minutes calcitriol pre-treated hASCs is increased by 1.5-fold at day 21, but it is decreased in continuous treatment by 0.6-fold compared to non-treated hASCs as shown in FIG. 8I.

[2] = test system: human adipose stem cells (hASCs); experiment: hASC attachment to BCP20/80 scaffolds after calcitriol pre-treatment
Method: In one embodiment, a method of static culture of hASCs by pre-treatment with vitamin D3 (calcitriol) and attachment of hASCs to the scaffold used in one-step surgical procedure comprises the following steps. At one step, isolating hASCs as explained in FIG. 1. In an embodiment, the hASCs from three donors at passage 3 are used for further processing. As an optional step, the obtained hASCs are either or not incubated for a period of about 30 mins with low concentrated calcitriol of about 10 nM at room temperature. At next step, the calcitriol treated hASCs are washed twice with Phosphate Buffered Saline (PBS) to remove calcitriol. Further, the washed hASCs are centrifuged and resuspended in Dulbecco's Minimum Essential Medium (DMEM) without any supplements. At another step, the resuspended cells are seeded on the scaffold and allowed to attach to the scaffolds for a period of about 30 minutes. At next step, the scaffolds with attached cells are transferred to 12-well plates with Costar® Transwell® containers (Corning Life Sciences, Lowell, Mass., USA) containing expansion medium (DMEM) supplemented with 10% Fetal Clone I (FCI), antibiotics (1% penicillin/streptomycin/fungizone (PSF)), 50 μM ascorbic acid (Merck, Darmstadt, Germany), and 10 mM β-glycerol phosphate (Merck, Darmstadt, Germany) (PLGA/β-TCP). […]

[3] = test system: human adipose stem cells (hASCs); experiment: ALP activity of hASCs seeded in BCP scaffold
Method: as §1, §2
Referring to FIGS. 5A and 5B, the effects of calcitriol treatment on ALP activity of hASCs, where the calcitriol pre-treatment is conducted for a short period of 30 minutes and a long period of about 3 weeks. […] The ALP activity of continuous treated cells with calcitriol is increased by 2.6-fold relative to non-treated cells after 2 weeks of culture.

[4] = continuous treatment, 3 weeks of culture

C=C1/C(=C\C=C2/CCC[C@]3(C)[C@@H]([C@H](C)CCCC(C)(C)O)CC[C@@H]23)C[C@@H](O)C[C@@H]1O [calcitriol, 1,25-dihydroxyvitamin D3]
ALP gene expression ([1]; 30 min calcitriol, BCP20/80): upregulates | RUNX2 gene expression, increase ([1]; after 2 weeks, vs non-treated hASCs): 3.6 fold | RUNX2 gene expression, increase ([1]; after 3 weeks, vs non-treated hASCs): 5.7 fold | CYP24 gene expression ([1]; 30 min pre-treated cells): not expressed | Ki-67 gene expression ([1]; 30 min pre-treatment, 3 weeks of culture): decreases | VDR gene expression ([1]; 30 min pre-treatment, compared to continuous treatment, maximal stimulation at day 14): increases | SPARC expression, increase ([1]; 30 min pre-treatment, day 14): 2.1 fold | VEGF189 gene expression, increase ([1]; 30 min pre-treatment, day 21, vs non-treated hASCs): 1.5 fold | OPN expression ([1]; 30 min treatment, day 21): increases | CYP24 gene expression [1, 4]: remarkably increases | Ki-67 gene expression [1, 4]: no change | RUNX2 expression, decrease ([1]; continuous treatment, after 2 weeks): 0.81 fold | RUNX2 expression, increase ([1]; continuous treatment, after 3 weeks): 2.4 fold | OPN gene expression ([1]; continuous treatment, day 4): upregulates | SPARC expression, decrease ([1]; continuous treatment, day 14): 0.8 fold | VEGF189 gene expression, decrease ([1]; continuous treatment, day 21, vs non-treated hASCs): 0.6 fold | DMP1 gene expression ([1]; over about 3 weeks, treatment group not specified): gradual and insignificant increase | cell attachment to BCP scaffolds ([2]; 30 min pre-treatment with 10 nM calcitriol (non-treated 54%)): 83% | cell attachment to BCP scaffolds, increase ([2]; 30 min pre-treatment with 10 nM calcitriol, vs non-treated cells): 1.5 fold | ALP activity, increase ([3]; 30 min pre-treatment, after 2 weeks of culture, vs non-treated cells): 18.5 fold | ALP activity, increase ([3]; 30 min pre-treatment, after 3 weeks of culture): 2.4 fold | ALP activity, increase ([3]; continuous treatment with 10 nM, after 2 weeks, vs non-treated cells): 2.6 fold | ALP activity, change ([3]; continuous treatment with 10 nM, at 3 weeks): 0.4 fold
